In PMC4145680 (mBio, 2014):

Biological target: E. coli SQR (pFAS, SdhABCD^+) (Escherichia coli, UniProt P0AC41)
Assay: PES-DCIP assay and Clark O2 electrode, IMVs
Format: biochemical
Conditions: pH 7.5 (50 mM MOPS)

Chain of E. coli SQR (pFAS, SdhABCD^+) (P0AC41 whole entry): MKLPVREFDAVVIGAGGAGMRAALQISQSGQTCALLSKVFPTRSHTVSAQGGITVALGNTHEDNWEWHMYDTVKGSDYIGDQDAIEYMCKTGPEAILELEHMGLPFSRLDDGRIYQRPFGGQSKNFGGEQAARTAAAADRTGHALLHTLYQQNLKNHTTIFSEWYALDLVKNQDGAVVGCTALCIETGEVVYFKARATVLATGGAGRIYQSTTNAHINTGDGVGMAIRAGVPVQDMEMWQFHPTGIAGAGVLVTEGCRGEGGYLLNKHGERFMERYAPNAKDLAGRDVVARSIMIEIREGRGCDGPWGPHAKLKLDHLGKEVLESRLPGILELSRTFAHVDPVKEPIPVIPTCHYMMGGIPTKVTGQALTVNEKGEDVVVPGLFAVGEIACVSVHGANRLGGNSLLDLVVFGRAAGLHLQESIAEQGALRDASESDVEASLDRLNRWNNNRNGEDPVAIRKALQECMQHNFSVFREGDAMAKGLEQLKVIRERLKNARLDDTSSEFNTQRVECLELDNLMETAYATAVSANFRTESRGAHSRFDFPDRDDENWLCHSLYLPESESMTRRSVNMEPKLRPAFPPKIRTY
Chain of E. coli SQR (pFAS, SdhABCD^+) (P07014 whole entry partner): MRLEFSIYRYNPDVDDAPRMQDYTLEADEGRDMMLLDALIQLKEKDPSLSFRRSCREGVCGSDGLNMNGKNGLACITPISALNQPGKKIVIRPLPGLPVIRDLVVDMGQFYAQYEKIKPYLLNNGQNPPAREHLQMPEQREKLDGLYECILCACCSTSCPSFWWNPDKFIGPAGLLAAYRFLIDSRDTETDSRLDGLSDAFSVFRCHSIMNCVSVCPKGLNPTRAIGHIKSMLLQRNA
Chain of E. coli SQR (pFAS, SdhABCD^+) (P69054 whole entry partner): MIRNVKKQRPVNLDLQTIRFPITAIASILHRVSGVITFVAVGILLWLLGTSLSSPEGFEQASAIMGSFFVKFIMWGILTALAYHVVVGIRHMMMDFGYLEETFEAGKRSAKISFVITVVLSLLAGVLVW
Chain of E. coli SQR (pFAS, SdhABCD^+) (P0AC44 whole entry partner): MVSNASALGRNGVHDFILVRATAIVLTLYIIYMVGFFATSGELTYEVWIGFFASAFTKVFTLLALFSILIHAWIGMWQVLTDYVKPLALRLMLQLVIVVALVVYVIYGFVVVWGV

With `O=C(O)CCC(=O)O` [succinate] the “PES-DCIP assay and Clark O2 electrode, IMVs” value was “E. coli strains overexpressing either the SQR operon (pFAS, SdhABCD^+)”.
